We go through three compounds from patent publication US11266753B2, “2-[5-(imidazol-1-ylmethyl)pyridin-3-yl]benzimtdazole derivative compound, and medicament including same” (Nihon Medi-Physics Co., Ltd., priority 2017, dated 2022).

SMILES strings stand for the structures.

For data set [1], the system named is normal region in an adjacent part to the lesion region (human adrenal section). Briefly: In vitro autoradiography using human adrenal tumor: binding ability to normal region. Conditions: relative to [123I]IMTO = 1, human plasma, 37° C., 10 minutes. How it is done: (§1) By using a frozen human adrenal tissue specimen containing a lesion region having an aldosterone-producing tumor site, and a normal region in an adjacent part to the lesion region, in vitro autoradiography was performed. Specifically, a slide glass on which a section prepared by embedding the specimen in an embedding medium for preparing a frozen tissue section (Tissue-Tek O.C.T. Compound, manufactured by Sakura Finetek Japan Co., Ltd.), and thinly cutting the embedded specimen of human adrenal tissue to have a thickness of 7 μm had been pasted (stored at −80° C., hereinafter, referred to as human adrenal section) was used for experiment.
(§2) A solution of each of Compounds [^18F]100, [^18F]101, [^18F]102, and […], which had been obtained in Reference Example 2, Example 2, 4, or 6, and Compound [^123I]IMTO (reference compound) was dispensed into a vial, and the amount of radioactivity was measured by a radioisotope dose calibrator (CRC-15R, manufactured by Capintec, Inc.) The radioactive concentration of a solution that had been prepared by adding each solution obtained above to human plasma (hereinafter referred to as reaction mixture) was measured by using an autowell gamma system (ARC-7001, manufactured by Hitachi, Ltd.).
(§3) For preincubation, a human adrenal section was immersed in phosphate-buffered saline (PBS) at 37° C. for 5 minutes, and then immersed in human plasma at 37° C. for 5 minutes. Next, as a reaction step, the human adrenal section was immersed in the reaction mixture at 37° C. for 10 minutes. After that, the human adrenal section was washed with human plasma five times at 37° C. for 2 minutes, and then air-dried. Further, a piece of filter paper, which had been cut out into a circular shape and had been pasted on a slide glass, was impregnated with a known amount of the reaction mixture, and then air dried, and the resultant piece was used as a standard radiation source.
(§4) The air-dried human adrenal section and the air-dried standard radiation source were exposed to an imaging plate (BAS-SR2040, manufactured by Fujifilm Corporation) (IP sheet), and autoradiograms were obtained by a fluoro image analyzer (Typhoo FLA 7000 IP, manufactured by GE Healthcare Japan Corporation). A region of interest (ROI) was set in each of the lesion region and normal region obtained on the autoradiograms, and the radiation count was determined. The ROI was also set for the standard radiation source, and the radiation count was determined.
(§5) For the autoradiograms obtained for the human adrenal section, the radiation count (correction value) of each region (lesion region or normal region) was determined as in formula (1) as a correction value to the standard radiation source.
(§6) The binding ability of the compound according to the present invention (each of Compounds [^18F]101, [^18F]102, and [^18F]103) to each region (lesion region or normal region) was determined as in formulas (2) and (3) as the relative value in a case where the radiation count (correction value) in each region of ^[123I]IMTO (reference compound) was set to 1. Further, the lesion/normal ratio was determined as in formula (4).

Data set [2] can be described thus: Pharmacokinetic distribution experiment (PET, SUV of liver, kidney, spleen). It counts as in vivo, normal rats. Conditions: FIG. 2; for radioactivity accumulation in tissues (the liver, kidney, and spleen) surrounding the adrenal glands: PET SUV at 60 minutes and 180 minutes after the administration; for high radioactivity accumulation that would be an obstacle in the adrenal gland imaging: liver, kidney, spleen, 60 and 180 minutes after the administration. How it is done: The compounds according to the present invention (Compounds [^18F]101, [^18F]102, and [^18F]103) were administered to three normal rats without anesthesia. Imaging data for 15 minutes under isoflurane anesthesia were collected at 60 minutes and 180 minutes after the administration. The imaging data were subjected to image reconstruction by a positron emission tomography (PET) device (instrument: eXplore VISTA, manufactured by GE Healthcare Japan Corporation), and then a volume of interest (VOI) was set in each of the liver, kidney, and spleen, and a standardized uptake value (SUV) of each tissue was determined as in formula (5).

Data set [3] deals with lesion region having an aldosterone-producing tumor site (human adrenal section). Briefly: In vitro autoradiography using human adrenal tumor: binding ability to lesion region. Conditions: for B2, binding ability to a lesion region, ratio to reference compound: relative to [123I]IMTO = 1, human plasma, 37° C., 10 minutes; for concentration shown at the lesion sites on autoradiograms (FIG. 1): Samples 1 to 6, compared with Compound [18F]100. How it is done: as §1, §2, §3, §4, §5, §6

Consider `Fc1ccc2nc(-c3cncc(Cn4ccnc4)c3)n(CC[18F])c2c1` [Compound [^18F]101, 6-fluoro-1-(2-[^18F]fluoroethyl)-2-[5-(imidazol-1-ylmethyl)pyridin-3-yl]benzimidazole], for which the “B1, binding ability to a normal region, ratio to reference compound” value in data set [1] (Sample 1) is 0.00; in data set [1] (Sample 2) it was 0.01; in data set [1] (Sample 3), 0.03; in data set [1] (Sample 4), 0.01; in data set [1] (Sample 5) it was 0.01; in data set [1] (Sample 6) it was 0.01. In data set [2], the “radioactivity accumulation in tissues (the liver, kidney, and spleen) surrounding the adrenal glands” value (“radioactivity accumulation in tissues” for short) is “decreased over time”. In addition, the “high radioactivity accumulation that would be an obstacle in the adrenal gland imaging” value in data set [2] was “not observed”. Besides, the “B2/B1, lesion/normal ratio” value in data set [3] (Sample 1) was 14.44; in data set [3] (Sample 2), 19.66; in data set [3] (Sample 3), 8.44; in data set [3] (Sample 4) it was 8.28; in data set [3] (Sample 5) it was 14.94; in data set [3] (Sample 6), 37.80. Moreover, the “B2, binding ability to a lesion region, ratio to reference compound” value in data set [3] (Sample 1) is on record as 0.19; in data set [3] (Sample 2), 0.24; in data set [3] (Sample 3), 0.32; in data set [3] (Sample 4) it was 0.21; in data set [3] (Sample 5), 0.13; in data set [3] (Sample 6), 0.45. In addition, in data set [3], the “concentration shown at the lesion sites on autoradiograms (FIG. 1)” value (“concentration shown at the lesion sites” below) is “higher concentration than that of Compound [^18F]100”.

Consider `Fc1cc2nc(-c3cncc(Cn4ccnc4)c3)n(CC[18F])c2cc1F` [Compound [^18F]102, 5,6-difluoro-1-(2-[^18F]fluoroethyl)-2-[5-(imidazol-1-ylmethyl)pyridin-3-yl]benzimidazole], for which the “B1, binding ability to a normal region, ratio to reference compound” value is given as 0.01 in data set [1] (Sample 1); 0.03 in data set [1] (Sample 2); 0.05 in data set [1] (Sample 3); 0.05 in data set [1] (Sample 4); 0.01 in data set [1] (Sample 5); 0.03 in data set [1] (Sample 6). For the same compound, the “radioactivity accumulation in tissues” value in data set [2] is on record as “decreased over time”. For the same compound, the “high radioactivity accumulation that would be an obstacle in the adrenal gland imaging” value in data set [2] is “not observed”. The “B2/B1, lesion/normal ratio” value in data set [3] (Sample 1) came out at 6.78; in data set [3] (Sample 2), 8.69; in data set [3] (Sample 3) it was 8.20; in data set [3] (Sample 4), 4.32; in data set [3] (Sample 5), 9.21; in data set [3] (Sample 6), 23.93. Moreover, the “B2, binding ability to a lesion region, ratio to reference compound” value in data set [3] (Sample 1) is reported as 0.19; in data set [3] (Sample 2), 0.31; in data set [3] (Sample 3), 0.65; in data set [3] (Sample 4), 0.41; in data set [3] (Sample 5), 0.14; in data set [3] (Sample 6), 0.63. The “concentration shown at the lesion sites” value in data set [3] is “higher concentration than that of Compound [^18F]100”.

`N#Cc1cc2c(cc1F)nc(-c1cncc(Cn3ccnc3)c1)n2CC[18F]` [Compound [^18F]103, 2-[5-(1H-imidazol-1-ylmethyl)pyridin-3-yl]-5-fluoro-1-(2-[^18F]fluoroethyl)-1H-benzo[d]imidazole-6-carbonitrile]: the “B1, binding ability to a normal region, ratio to reference compound” value turned out to be 0.02 in data set [1] (Sample 1); 0.04 in data set [1] (Sample 2); 0.20 in data set [1] (Sample 3); 0.08 in data set [1] (Sample 4); 0.04 in data set [1] (Sample 5); 0.07 in data set [1] (Sample 6). For the same compound, the “radioactivity accumulation in tissues” value in data set [2] was “decreased over time”. Moreover, the “high radioactivity accumulation that would be an obstacle in the adrenal gland imaging” value in data set [2] is recorded as “not observed”. Moreover, the “B2/B1, lesion/normal ratio” value in data set [3] (Sample 1) came out at 4.57; in data set [3] (Sample 2), 12.05; in data set [3] (Sample 3), 2.68; in data set [3] (Sample 4), 2.03; in data set [3] (Sample 5), 5.17; in data set [3] (Sample 6) it was 15.42. For the same compound, the “B2, binding ability to a lesion region, ratio to reference compound” value in data set [3] (Sample 1) came to 0.23; in data set [3] (Sample 2), 0.46; in data set [3] (Sample 3), 0.79; in data set [3] (Sample 4), 0.33; in data set [3] (Sample 5), 0.29; in data set [3] (Sample 6), 1.09. Also, the “concentration shown at the lesion sites” value in data set [3] is “higher concentration than that of Compound [^18F]100”.
